The values below come from ChEMBL document CHEMBL1136703, “Leporin B: a novel hexokinase II gene inducing agent from an unidentified fungus” (Bioorg Med Chem Lett, 2003).

The experiment relates to L6. Put plainly: Inhibitory concentration against induction of Hexokinase II-luci signal in the reporter cell line. The class given is functional, cell-based. The conditions noted are these: Rattus norvegicus.

As a reminder, the IC50 is the midpoint of a concentration-inhibition curve.

`C/C=C/C1Oc2c(-c3ccccc3)cn(O)c(=O)c2C2C(C)CCCC12` (stereo unspecified) came in with an IC50 of 10 µM.
